Test results taken from US20190300885A1, “A NOVEL ROLE FOR TERMINAL RNA URIDYLATION AND RNA TURNOVER IN ONCOGENESIS” (Children's Medical Center Corporation, priority 2016, published 2019).
“Also recorded” adds a separate entry of the source.

Columns and labels:
HCT116 cells [1] = assay: Growth curves of wild-type vs ZCCHC6 knockout HCT116 cells under increasing drug concentrations; type: cell-based, human; conditions: HCT116, CRISPR/Cas9 ZCCHC6 knockout (KO) vs GFP-sgRNA control (WT)
Text: FIGS. 5A-5B. TUTase loss sensitizes cancer cells to disruption of RNA metabolism. […] Error bars indicate SEM (n=3); *P<0.05, **P<0.01.
Given the observed phenotypes, whether there are conditions that specifically sensitize cancer cells to TUTase loss was examined. In particular, since TUTases have been associated with RNA turnover, it was surmised that they may play an especially important role in the context of perturbed RNA metabolism. To address this hypothesis, small molecule agents that are known to cause DNA/RNA damage and thus impair RNA quality (doxorubicin, cisplatin, etoposide), as well as ones that inhibit nucleotide synthesis and thereby limit the pool of available nucleotides in the cell (5-fluorouracil and hydroxyurea) were selected, and wild-type and ZCCHC6 knockout HCT116 cells were treated with increasing concentrations of each agent (FIG. 5A). […] 5-FU has been specifically shown to target the RNA exosome complex, which may explain its differential activity from hydroxyurea in the experiments.

HCT116 cells [2] = assay: Growth/viability of wild-type vs TUTase knockout HCT116 cells under increasing bortezomib concentrations; type: cell-based, human; conditions: HCT116, ZCCHC6 knockout vs WT
Text: FIG. 16. TUTase loss has a downstream impact on protein turnover. Top, the relative rates of global mRNA translation as measured by the OP-Puromycin fluorescent assay are shown. siNC=negative control siRNA; siZ6=siZCCHC6. Error bars indicate SEM (n=3); *P<0.05. Bottom, growth curves of HCT116 cells after CRISPR/Cas9-mediated knockout using a ZCCHC6-targeting sgRNA (KO) or a GFP-targeting control sgRNA (WT) under treatment with different concentrations of bortezomib are shown.
Given that TUTases affect mRNA turnover, it was also surmised that they may have a downstream effect on protein turnover. To address this hypothesis, the global rate of translation in TUTase knockdown versus control HCT116 cells was measured using the OP-Puromycin method. […] In addition, we treated wild-type and TUTase knockout HCT116 cells with increasing concentrations of bortezomib, an inhibitor of the proteasome and thus protein decay (FIG. 16).

| SMILES | differential dose-dependent growth response of ZCCHC6 knockout vs wild-type cells (HCT116 cells [1]) | effect on cell viability in TUTase knockout vs wild-type cells (HCT116 cells [2]) |
| --- | --- | --- |
| COc1cc([C@@H]2c3cc4c(cc3[C@@H](O[C@@H]3O[C@@H]5CO[C@@H](C)O[C@H]5[C@H](O)[C@H]3O)[C@H]3COC(=O)[C@H]23)OCO4)cc(OC)c1O [etoposide] | only 5-fluorouracil (5-FU) yielded a differential dose-dependent response | – |
| CC(C)C[C@H](NC(=O)[C@H](Cc1ccccc1)NC(=O)c1cnccn1)B(O)O [bortezomib] | – | stronger in the TUTase knockout cells |
| O=c1[nH]cc(F)c(=O)[nH]1 [5-fluorouracil] | reproducibly stronger effect on the knockout cells; also recorded: significantly stronger inhibitory effect on cells depleted of TUTase | – |
| COc1cccc2c1C(=O)c1c(O)c3c(c(O)c1C2=O)C[C@@](O)(C(=O)CO)C[C@@H]3O[C@H]1C[C@H](N)[C@H](O)[C@H](C)O1 [doxorubicin] | only 5-fluorouracil (5-FU) yielded a differential dose-dependent response | – |
| N.N.[Cl][Pt][Cl] [cisplatin] | only 5-fluorouracil (5-FU) yielded a differential dose-dependent response | – |
